# Calls of active or inactive are those of the source. The rule behind the calls is not given here.
# Legend:
# [1] = target: RAF proto-oncogene serine/threonine-protein kinase (Homo sapiens, UniProt P04049); assay: Inhibition of human recombinant cRAF measured after 1 hr by TR-FRET assay
# NCI-H358 [2] = assay: Growth inhibition of human H358 cells expressing KRAS […] mutant measured after 3 days by Cell-titer Glo assay; format: functional; conditions: NCI-H358, 72 h, time 3 day
# [3] = Clearance in mouse at 1 mg/kg, iv by LC-MS/MS analysis; format: ADME, organism-based; conditions: in vivo
# [4] = Hepatic clearance in mouse liver microsomes; format: ADME, Microsome
# [5] = Cmax in mouse at 2 mg/kg, po by LC-MS/MS analysis; format: ADME, organism-based; parameters: dose 2 mg/kg, route po; conditions: in vivo
# [6] = Tmax in mouse at 2 mg/kg, po by LC-MS/MS analysis; format: ADME, organism-based; conditions: in vivo
# [7] = Cmax in rat at 2 mg/kg, po by LC-MS/MS analysis; format: ADME, organism-based; parameters: dose 2 mg/kg, route po; conditions: in vivo
# [8] = target: Serine/threonine-protein kinase B-raf (Homo sapiens, UniProt P15056); assay: Inhibition of human recombinant wild-type bRAF measured after 1 hr by TR-FRET assay
# Sequence of Serine/threonine-protein kinase B-raf (Homo sapiens, UniProt P15056) (P15056 whole entry): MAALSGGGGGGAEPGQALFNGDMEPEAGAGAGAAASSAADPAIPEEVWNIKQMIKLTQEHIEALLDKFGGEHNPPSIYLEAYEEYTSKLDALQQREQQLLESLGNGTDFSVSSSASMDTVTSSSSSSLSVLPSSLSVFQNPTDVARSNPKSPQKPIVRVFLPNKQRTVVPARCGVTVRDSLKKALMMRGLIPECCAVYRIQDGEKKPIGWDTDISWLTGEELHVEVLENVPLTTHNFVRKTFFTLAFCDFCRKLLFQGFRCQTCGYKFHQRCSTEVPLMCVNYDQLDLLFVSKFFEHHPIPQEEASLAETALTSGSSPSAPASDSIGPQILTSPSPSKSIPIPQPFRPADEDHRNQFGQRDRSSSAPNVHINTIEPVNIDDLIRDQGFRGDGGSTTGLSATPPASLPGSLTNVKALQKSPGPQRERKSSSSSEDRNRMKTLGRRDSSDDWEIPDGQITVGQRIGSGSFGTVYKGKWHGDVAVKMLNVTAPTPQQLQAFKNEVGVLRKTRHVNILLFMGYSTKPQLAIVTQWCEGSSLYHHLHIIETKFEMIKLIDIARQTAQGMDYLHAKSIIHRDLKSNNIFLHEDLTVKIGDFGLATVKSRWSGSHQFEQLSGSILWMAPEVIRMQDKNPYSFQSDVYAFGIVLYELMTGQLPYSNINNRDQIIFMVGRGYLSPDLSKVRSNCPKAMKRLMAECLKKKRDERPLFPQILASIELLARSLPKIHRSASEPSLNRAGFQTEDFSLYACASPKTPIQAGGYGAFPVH
# [9] = Half life in mouse at 2 mg/kg, po by LC-MS/MS analysis; format: ADME, organism-based; conditions: in vivo
# [10] = target: Voltage-gated inwardly rectifying potassium channel KCNH2 (Homo sapiens, UniProt Q12809); assay: Inhibition of hERG; format: toxicity
# Sequence of Voltage-gated inwardly rectifying potassium channel KCNH2 (Q12809 whole entry): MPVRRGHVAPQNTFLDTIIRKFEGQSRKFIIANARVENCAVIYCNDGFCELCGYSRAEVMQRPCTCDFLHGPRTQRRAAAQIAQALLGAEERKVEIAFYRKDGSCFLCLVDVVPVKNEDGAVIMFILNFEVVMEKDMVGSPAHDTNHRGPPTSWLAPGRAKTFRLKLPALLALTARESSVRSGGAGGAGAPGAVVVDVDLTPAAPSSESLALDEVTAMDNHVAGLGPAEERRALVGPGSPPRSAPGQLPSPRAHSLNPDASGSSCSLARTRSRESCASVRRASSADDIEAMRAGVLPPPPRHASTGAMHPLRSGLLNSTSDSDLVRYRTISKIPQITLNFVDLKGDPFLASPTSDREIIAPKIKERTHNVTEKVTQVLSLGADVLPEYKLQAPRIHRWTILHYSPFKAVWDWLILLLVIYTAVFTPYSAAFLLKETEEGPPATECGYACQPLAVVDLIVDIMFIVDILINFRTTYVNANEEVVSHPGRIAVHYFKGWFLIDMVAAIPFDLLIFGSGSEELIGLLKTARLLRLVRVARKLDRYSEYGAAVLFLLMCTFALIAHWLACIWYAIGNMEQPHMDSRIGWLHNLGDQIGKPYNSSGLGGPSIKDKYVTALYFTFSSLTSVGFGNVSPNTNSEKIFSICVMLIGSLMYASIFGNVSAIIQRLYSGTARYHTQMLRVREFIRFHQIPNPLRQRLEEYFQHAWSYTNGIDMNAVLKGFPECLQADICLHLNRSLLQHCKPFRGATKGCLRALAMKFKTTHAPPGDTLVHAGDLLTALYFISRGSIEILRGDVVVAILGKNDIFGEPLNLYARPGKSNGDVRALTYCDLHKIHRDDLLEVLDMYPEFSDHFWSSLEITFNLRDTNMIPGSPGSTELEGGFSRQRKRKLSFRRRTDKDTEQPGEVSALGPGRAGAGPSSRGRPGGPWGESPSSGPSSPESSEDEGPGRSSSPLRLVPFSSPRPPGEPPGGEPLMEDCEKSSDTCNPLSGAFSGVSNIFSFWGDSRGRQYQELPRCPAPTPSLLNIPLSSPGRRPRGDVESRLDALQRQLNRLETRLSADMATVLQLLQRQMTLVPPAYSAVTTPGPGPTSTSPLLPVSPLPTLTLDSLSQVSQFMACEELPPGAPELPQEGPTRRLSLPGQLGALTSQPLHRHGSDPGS
# [11] = Hepatic clearance in rat liver microsomes; format: ADME, Microsome
# [12] = Stability of compound in Dog liver microsomes assessed as half life; format: ADME, Canis lupus familiaris, Microsome
# [13] = Clearance in rat at 1 mg/kg, iv by LC-MS/MS analysis; format: ADME, organism-based; conditions: in vivo
# [14] = Stability of compound in human liver microsomes assessed as half life; format: ADME, Microsome
# [15] = Oral bioavailability in mouse at 2 mg/kg by LC-MS/MS analysis; format: ADME, organism-based; conditions: in vivo
# [16] = Half life in mouse at 1 mg/kg, iv by LC-MS/MS analysis; format: ADME, organism-based; conditions: in vivo
# [17] = AUC(0 to t) in mouse at 2 mg/kg, po by LC-MS/MS analysis; format: ADME, organism-based; parameters: dose 2 mg/kg, route po; conditions: in vivo
# Cytochrome P450 3A4 [18] = target: T1, Cytochrome P450 3A4 (Homo sapiens, UniProt P08684); assay: Inhibition of CYP3A4 in human liver microsomes using testosterone as substrate; parameters: species or system Microsome
# T1 sequence (P08684 whole entry): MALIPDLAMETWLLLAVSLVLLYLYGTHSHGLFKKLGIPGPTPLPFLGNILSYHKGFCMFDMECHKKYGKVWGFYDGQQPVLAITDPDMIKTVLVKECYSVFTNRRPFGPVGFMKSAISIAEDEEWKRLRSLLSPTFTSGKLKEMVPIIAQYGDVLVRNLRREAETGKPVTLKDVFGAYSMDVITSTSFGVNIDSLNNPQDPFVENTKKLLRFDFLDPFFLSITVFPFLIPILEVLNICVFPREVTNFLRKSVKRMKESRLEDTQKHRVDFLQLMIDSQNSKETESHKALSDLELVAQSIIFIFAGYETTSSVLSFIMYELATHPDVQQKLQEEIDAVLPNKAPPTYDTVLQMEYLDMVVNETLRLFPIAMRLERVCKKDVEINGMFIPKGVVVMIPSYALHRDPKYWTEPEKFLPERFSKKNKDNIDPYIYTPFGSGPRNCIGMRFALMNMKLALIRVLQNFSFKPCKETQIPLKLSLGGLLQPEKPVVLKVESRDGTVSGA
# [19] = AUC(0 to t) in rat at 1 mg/kg, iv by LC-MS/MS analysis; format: ADME, organism-based; parameters: dose 1 mg/kg, route iv; conditions: in vivo
# [20] = Stability of compound in mouse liver microsomes assessed as half life; format: ADME, Microsome
# [21] = MRT (0 to infinity) in rat at 2 mg/kg, po by LC-MS/MS analysis; format: ADME, organism-based; conditions: in vivo
# [22] = MRT (0 to infinity) in mouse at 2 mg/kg, po by LC-MS/MS analysis; format: ADME, organism-based; conditions: in vivo
# [23] = Permeability of compound by PAMPA assay; format: ADME; conditions: read-out: permeability
# Calu-6 = assay: Growth inhibition of human Calu-6 cells expressing KRAS Q61K mutant measured after 3 days by Cell-titer Glo assay; format: functional; conditions: Calu-6, 72 h, time 3 day
# [24] = Volume of distribution in mouse at 1 mg/kg, iv by LC-MS/MS analysis; format: ADME, organism-based; conditions: in vivo
# Cytochrome P450 3A4 [25] = target: T1, Cytochrome P450 3A4; assay: Inhibition of CYP3A4 in human liver microsomes using midazolam as substrate; parameters: species or system Microsome
# Cytochrome P450 2C9 = Cytochrome P450 2C9 (Homo sapiens, UniProt P11712); assay: Inhibition of CYP2C9 in human liver microsomes; format: ADME, Microsome
# Sequence of Cytochrome P450 2C9 (P11712 whole entry): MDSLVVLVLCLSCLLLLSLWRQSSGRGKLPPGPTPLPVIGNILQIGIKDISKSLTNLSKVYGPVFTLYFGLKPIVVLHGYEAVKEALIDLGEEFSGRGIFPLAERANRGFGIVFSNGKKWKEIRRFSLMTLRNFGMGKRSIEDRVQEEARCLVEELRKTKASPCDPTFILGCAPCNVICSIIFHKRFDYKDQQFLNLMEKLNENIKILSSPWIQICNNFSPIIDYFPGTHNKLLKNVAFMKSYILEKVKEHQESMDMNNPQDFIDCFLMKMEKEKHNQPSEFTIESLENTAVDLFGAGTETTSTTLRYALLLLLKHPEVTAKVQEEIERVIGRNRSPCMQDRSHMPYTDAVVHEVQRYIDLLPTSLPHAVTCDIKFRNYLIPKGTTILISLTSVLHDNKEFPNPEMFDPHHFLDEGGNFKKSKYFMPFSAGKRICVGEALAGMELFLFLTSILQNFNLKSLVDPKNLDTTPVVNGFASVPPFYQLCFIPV
# [26] = Half life in rat at 2 mg/kg, po by LC-MS/MS analysis; format: ADME, organism-based; conditions: in vivo
# Cytochrome P450 2C19 = Cytochrome P450 2C19 (Homo sapiens, UniProt P33261); assay: Inhibition of CYP2C19 in human liver microsomes; format: ADME, Microsome
# [27] = Volume of distribution in rat at 1 mg/kg, iv by LC-MS/MS analysis; format: ADME, organism-based; conditions: in vivo
# [28] = Hepatic clearance in dog liver microsomes; format: ADME, Canis lupus familiaris, Microsome
# Cytochrome P450 1A2 = target: T2, Cytochrome P450 1A2 (Homo sapiens, UniProt P05177); assay: Inhibition of CYP1A2 in human liver microsomes; format: ADME, Microsome
# T2 sequence (P05177 whole entry): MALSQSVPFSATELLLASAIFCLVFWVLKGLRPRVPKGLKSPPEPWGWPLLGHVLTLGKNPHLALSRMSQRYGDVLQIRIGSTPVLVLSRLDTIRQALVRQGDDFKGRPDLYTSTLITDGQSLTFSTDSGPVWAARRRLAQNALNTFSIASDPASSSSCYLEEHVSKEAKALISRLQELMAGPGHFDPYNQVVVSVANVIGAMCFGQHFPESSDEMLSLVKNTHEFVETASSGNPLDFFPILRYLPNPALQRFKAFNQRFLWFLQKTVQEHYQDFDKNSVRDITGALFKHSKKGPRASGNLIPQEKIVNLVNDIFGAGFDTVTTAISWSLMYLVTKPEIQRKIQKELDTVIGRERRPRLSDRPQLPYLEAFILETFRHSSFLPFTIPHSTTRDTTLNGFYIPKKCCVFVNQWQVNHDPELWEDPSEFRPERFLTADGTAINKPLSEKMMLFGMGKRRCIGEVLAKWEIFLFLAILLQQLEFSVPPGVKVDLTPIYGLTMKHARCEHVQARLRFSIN
# [29] = Hepatic clearance in human liver microsomes; format: ADME, Microsome
# NCI-H358 [30] = assay: Effect on Erk signalling pathway in human H358 cells assessed as increase in Erk phosphorylation by HTRF assay; format: functional, cell-based
# Cytochrome P450 2D6 = Cytochrome P450 2D6 (Homo sapiens, UniProt P10635); assay: Inhibition of CYP2D6 in human liver microsomes; parameters: species or system Microsome
# Sequence of Cytochrome P450 2D6 (P10635 whole entry): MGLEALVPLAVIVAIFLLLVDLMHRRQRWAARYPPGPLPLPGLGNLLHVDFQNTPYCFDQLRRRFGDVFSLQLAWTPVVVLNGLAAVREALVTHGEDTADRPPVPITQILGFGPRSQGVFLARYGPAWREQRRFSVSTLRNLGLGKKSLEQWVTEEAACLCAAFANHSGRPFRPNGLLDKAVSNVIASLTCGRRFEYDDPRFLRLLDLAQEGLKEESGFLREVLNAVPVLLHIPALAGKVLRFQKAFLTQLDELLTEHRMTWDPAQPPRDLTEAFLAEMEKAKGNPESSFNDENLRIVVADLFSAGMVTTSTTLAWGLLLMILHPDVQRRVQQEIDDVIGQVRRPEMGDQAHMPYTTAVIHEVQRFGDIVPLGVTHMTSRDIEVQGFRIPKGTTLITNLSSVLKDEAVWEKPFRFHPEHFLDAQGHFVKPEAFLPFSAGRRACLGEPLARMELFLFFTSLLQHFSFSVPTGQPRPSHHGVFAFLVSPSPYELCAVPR
# [31] = Oral bioavailability in rat at 2 mg/kg by LC-MS/MS analysis; format: ADME, organism-based; conditions: in vivo
# [32] = MRT (0 to infinity) in rat at 1 mg/kg, iv by LC-MS/MS analysis; format: ADME, organism-based; conditions: in vivo
# [33] = Tmax in rat at 2 mg/kg, po by LC-MS/MS analysis; format: ADME, organism-based; conditions: in vivo
# [34] = Half life in rat at 1 mg/kg, iv by LC-MS/MS analysis; format: ADME, organism-based; conditions: in vivo
# [35] = MRT (0 to infinity) in mouse at 1 mg/kg, iv by LC-MS/MS analysis; format: ADME, organism-based; conditions: in vivo
# [36] = Solubility of compound in PBS at pH 7.4; format: physicochemical
# [37] = AUC(0 to t) in rat at 2 mg/kg, po by LC-MS/MS analysis; format: ADME, organism-based; parameters: dose 2 mg/kg, route po; conditions: in vivo
# [38] = target: Serine/threonine-protein kinase B-raf (Homo sapiens, UniProt P15056, V600E); assay: Inhibition of human recombinant bRAF […] mutant measured after 1 hr by TR-FRET assay
# Sequence of Serine/threonine-protein kinase B-raf (Homo sapiens, UniProt P15056, V600E) (P15056 2-766 V600E limits assumed): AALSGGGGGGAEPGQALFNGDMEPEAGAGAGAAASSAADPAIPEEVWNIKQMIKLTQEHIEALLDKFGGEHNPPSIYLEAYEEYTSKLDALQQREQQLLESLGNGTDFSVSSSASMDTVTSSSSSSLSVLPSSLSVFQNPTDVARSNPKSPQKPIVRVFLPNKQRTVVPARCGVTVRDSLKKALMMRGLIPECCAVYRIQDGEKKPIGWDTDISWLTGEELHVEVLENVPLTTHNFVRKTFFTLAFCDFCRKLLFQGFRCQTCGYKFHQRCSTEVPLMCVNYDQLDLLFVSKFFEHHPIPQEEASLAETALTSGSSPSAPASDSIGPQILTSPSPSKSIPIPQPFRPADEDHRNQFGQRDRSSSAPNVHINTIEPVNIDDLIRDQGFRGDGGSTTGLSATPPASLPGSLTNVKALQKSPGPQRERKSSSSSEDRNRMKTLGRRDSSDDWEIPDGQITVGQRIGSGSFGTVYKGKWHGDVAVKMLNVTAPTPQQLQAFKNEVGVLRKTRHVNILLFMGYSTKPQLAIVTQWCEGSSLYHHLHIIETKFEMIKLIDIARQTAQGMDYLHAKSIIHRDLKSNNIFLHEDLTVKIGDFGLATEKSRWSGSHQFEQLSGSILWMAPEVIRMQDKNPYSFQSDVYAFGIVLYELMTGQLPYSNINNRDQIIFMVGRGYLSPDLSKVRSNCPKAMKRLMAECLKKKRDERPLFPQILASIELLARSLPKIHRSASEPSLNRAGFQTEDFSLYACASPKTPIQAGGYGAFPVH
# [39] = Stability of compound in rat liver microsomes assessed as half life; format: ADME, Microsome
# [40] = AUC(0 to t) in mouse at 1 mg/kg, iv by LC-MS/MS analysis; format: ADME, organism-based; parameters: dose 1 mg/kg, route iv; conditions: in vivo
# A-375 = assay: Growth inhibition of human A375 cells expressing bRaf V600E mutant measured after 3 days by Cell-titer Glo assay; format: functional; conditions: A-375, 72 h, time 3 day
# Sequence of RAF proto-oncogene serine/threonine-protein kinase (P04049 whole entry): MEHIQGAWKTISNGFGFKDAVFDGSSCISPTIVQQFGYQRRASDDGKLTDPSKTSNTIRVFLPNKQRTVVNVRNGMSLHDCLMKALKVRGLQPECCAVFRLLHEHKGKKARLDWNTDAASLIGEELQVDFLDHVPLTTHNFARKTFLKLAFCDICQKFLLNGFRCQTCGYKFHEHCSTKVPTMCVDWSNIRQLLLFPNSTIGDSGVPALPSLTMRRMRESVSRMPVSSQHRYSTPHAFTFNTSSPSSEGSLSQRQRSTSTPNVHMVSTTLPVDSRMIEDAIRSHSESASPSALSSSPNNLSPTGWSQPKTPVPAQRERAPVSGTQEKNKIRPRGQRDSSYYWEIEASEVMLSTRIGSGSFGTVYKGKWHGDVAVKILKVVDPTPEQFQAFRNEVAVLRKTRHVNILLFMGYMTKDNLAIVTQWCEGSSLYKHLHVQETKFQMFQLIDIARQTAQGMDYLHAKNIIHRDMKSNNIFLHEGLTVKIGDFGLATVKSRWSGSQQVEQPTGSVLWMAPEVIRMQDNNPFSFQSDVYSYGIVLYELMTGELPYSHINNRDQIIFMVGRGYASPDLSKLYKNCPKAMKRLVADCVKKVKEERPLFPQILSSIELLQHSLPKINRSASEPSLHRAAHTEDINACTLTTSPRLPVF
compound,measurement,setting,value
Cc1ccc(NC(=O)c2ccnc(C(F)(F)F)c2)cc1-c1ccc2c(c1)SC1(CCOCC1)CC2=O,IC50,[1],0.029 µM
same,GI50,NCI-H358 [2],7.9 µM
Cc1ccc(NC(=O)c2ccnc(C(F)(F)F)c2)cc1-c1ccc2c(c1)OC1(CCOCC1)C(=O)N2,IC50,[1],0.014 µM
same,GI50,NCI-H358 [2],10 µM
Cc1ccc(NC(=O)c2ccnc(C(F)(F)F)c2)cc1-c1ccc2c(c1)OC1(CCOCC1)CC2N (centres undefined),IC50,[1],0.021 µM
same,GI50,NCI-H358 [2],6.6 µM
Cc1ccc(NC(=O)c2ccnc(C(F)(F)F)c2)cc1-c1ccc2c(c1)N(O)C1(CCOCC1)NC2=O,IC50,[1],0.055 µM
same,GI50,NCI-H358 [2],8.9 µM
Cc1ccc(NC(=O)c2ccnc(C(F)(F)F)c2)cc1-c1ccc2c(c1)OC1(CCOCC1)NC2=O,clearance,[3],24.2 mL/min/kg
same,CLH,[4],45 µL/min/g
same,Cmax,[5],1.48 ng/mL
same,Tmax,[6],1 h
same,Cmax,[7],52.1 ng/mL
same,IC50,[8],0.036 µM
same,t1/2,[9],1.91 h
same,IC50,[1],0.0038 µM
same,IC50,[10],5.9 µM
same,CLH,[11],32.7 µL/min/g
same,half-life,[12],> 2.32 h
same,clearance,[13],15 mL/min/kg
same,half-life,[14],0.485 h
same,bioavailability,[15],40%
same,half-life,[16],2.81 h
same,AUCt,[17],546 ng·h/mL
same,IC50,Cytochrome P450 3A4 [18],> 30 µM
same,AUC(0-t),[19],1120 ng·h/mL
same,half-life,[20],1.02 h
same,MRT inf,[21],8.14 h
same,MRT inf,[22],3.59 h
same,Papp,[23],< 0.018 ×10⁻⁶ cm/s
same,GI50,Calu-6,3.9 µM
same,Vd,[24],5.87 L/kg
same,IC50,Cytochrome P450 3A4 [25],> 30 µM
same,IC50,Cytochrome P450 2C9,> 30 µM
same,half-life,[26],4.57 h
same,IC50,Cytochrome P450 2C19,> 30 µM
same,Vd,[27],5.59 L/kg
same,CLH,[28],< 9.6 µL/min/g
same,IC50,Cytochrome P450 1A2,> 30 µM
same,CLH,[29],13.7 µL/min/g
same,GI50,NCI-H358 [2],3.4 µM
same,Activity,NCI-H358 [30],Active
same,IC50,Cytochrome P450 2D6,> 30 µM
same,bioavailability,[31],24%
same,MRT inf,[32],4.35 h
same,Tmax,[33],4 h
same,half-life,[34],4.39 h
same,MRT inf,[35],1.74 h
same,solubility,[36],0.7 µM
same,AUC(0-t),[37],517 ng·h/mL
same,IC50,[38],0.0294 µM
same,half-life,[39],0.783 h
same,AUC(0-t),[40],688 ng·h/mL
same,GI50,A-375,2.9 µM
